Experimental data as given in publication PMC11131246, “Molecular determinants for brain targeting by peptides: a meta-analysis approach with experimental validation” (Fluids and Barriers of the CNS, 2024).
Read-outs that look alike come from different tables or passages of the source. Residues, ends and D or L forms follow the SMILES beside them.

Experiments:
[1] = Cytotoxicity, CellTiter-Blue cell viability assay; format: cell-based; settings: human; CellTiter-Blue, peptides 0.05–100.0 µM, 24 h; triplicates, three independent cultures
Procedure: (§1) Peptide cytotoxicity was determined using the CellTiter-Blue® cell viability assay, following a described protocol. Briefly, all cell lines were carefully harvested with trypsin–EDTA and seeded 10.000–20.000 cells/100 μL into 96-well clear flat-bottomed polystyrene plates (Corning, USA) for 24 h. After medium removal, cells were washed twice with 1X PBS, and 100 µL of previously diluted peptides (range from 0.05–100.0 µM) in the respective medium were added to cells. Then, after 24 h, cells were washed twice with 1X PBS and 20 µL of CellTiter-Blue® Reagent (diluted in 100 µL of medium) was added to each well and incubated for 3 h in culturing conditions. The fluorescence intensity was measured using Varioskan™ LUX multimode microplate reader.
(§2) IC50 values were determined using GraphPad Prism 7.0 software using a log(inhibitor) versus normalized response. Experiments were performed in triplicates on different days using three independently grown cell cultures.

[2] = Cytotoxicity, CellTiter-Blue cell viability assay; format: cell-based; settings: human; CellTiter-Blue, peptides 0.05–100.0 µM, 24 h; triplicates, three independent cultures; read-out: Cytotoxicity IC50 HEK-293
Procedure: as §1, §2

[3] = Analytical RP-HPLC retention time (used as indication of hydrophobicity); format: physicochemical; settings: analytical reverse phase HPLC, UV chromatogram; free and CF-labelled peptides
[4] = Cytotoxicity, CellTiter-Blue cell viability assay; format: cell-based; settings: human; read-out: Cytotoxicity IC50 HBEC-5i
Procedure: as §1, §2

[5] = Biodistribution of 67Ga-radiolabeled peptides; parameters: species or system mouse; settings: in vivo, iv, 100 uCi, total radioactivity, i.v. tail vein, mean ± SD, n = 3; for tissue uptake at 1 h: female, CD1, mouse, 1 h post injection
Procedure: All animal experiments were performed in compliance with national and EU legislation for good practices on laboratory animal science. The animals were housed in a temperature and humidity-controlled environment with a 12 h light/12 h dark schedule. Biodistribution of radiolabeled peptides was performed on 7 weeks old CD1 female mice.
Animals were intravenously injected into the tail vein with 100 µL of a 25 µM saline solution of the ^67Ga-peptide with a radioactivity around 100 µCi. The mice were euthanized by cervical dislocation at 2 min and 1 h after injection. The dose administered and the radioactivity in the euthanized animals was measured using a dose calibrator (Carpintec CRC-15W, Ramsey, USA). The difference between the radioactivity in the injected and the euthanized animals was assumed to be due to excretion. Brain and tissues of interest without previous perfusion were dissected, washed, and weighed, and their radioactivity was measured using a γ counter (Hidex AMG, Hidex, Turku, Finland). The uptake in the brain and tissues of interest was calculated and expressed as a percentage of injected radioactivity dose per gram of tissue (% ID/g).

HBEC-5i cells = assay: Translocation across in vitro BBB model (HBEC-5i monolayer, transwell); format: in vitro ADME, human; settings: HBEC-5i monolayer on AF-coated PET transwell inserts (1.0 µm pores), 8 days, CF-peptide 5.0 µM in DMEM:F12 without phenol red added to apical side, 24 h, fluorescence, plate reader, mean ± SD, triplicates of three independent experiments
Procedure: Throughout 8 days, medium was changed every other day. On the day of the experiment, cells were washed twice with 1X PBS (137.0 mM NaCl, 2.7 mM KCl, 10.0 mM Na2HPO4, and 1.8 mM KH2PO4), and once with DMEM:F12 without phenol red. Then, CF-peptides (5.0 μM, in DMEM:F12 without phenol red) were added to the apical side of the in vitro BBB model and incubated for 24 h. Finally, samples from the apical and basolateral side were collected and fluorescence intensity analyzed using a Varioskan^TM LUX multimode microplate reader (Thermo Fisher, Spain). […] Experiments were performed in triplicates on different days using three independently grown cell cultures. Seeking experimental support for our hypothesis, we have synthesized and tested in vitro the activity of ten peptides (Table 1), selected among the 14 BBBpS entries by their lowest S score in an OLS ranking.

[6] = Cytotoxicity, CellTiter-Blue cell viability assay; format: cell-based; settings: human; CellTiter-Blue, peptides 0.05–100.0 µM, 24 h; triplicates, three independent cultures; read-out: Cytotoxicity IC50 Hs68
Procedure: as §1, §2

[7] = Cytotoxicity, CellTiter-Blue cell viability assay; format: cell-based; settings: human; CellTiter-Blue, peptides 0.05–100.0 µM, 24 h; triplicates, three independent cultures; read-out: Cytotoxicity IC50 HeLa
Procedure: as §1, §2

CC[C@H](C)[C@H](NC(=O)CNC(=O)[C@H](CCCNC(=N)N)NC(=O)[C@H](Cc1ccc(O)cc1)NC(=O)[C@H](CS)NC(=O)[C@@H](NC(=O)[C@H](CCCNC(=N)N)NC(=O)[C@H](Cc1ccccc1)NC(=O)[C@H](CS)NC(=O)[C@H](Cc1c[nH]c2ccccc12)NC(=O)[C@@H](N)CCCCN)C(C)C)C(=O)N[C@@H](CS)C(=O)N[C@@H](Cc1ccc(O)cc1)C(=O)N[C@@H](CCCNC(=N)N)C(=O)N[C@@H](CCCNC(=N)N)C(=O)N[C@@H](CS)C(=O)N[C@@H](CCCNC(=N)N)C(N)=O [non-BBBpS_2] (H-KWCFRVCYRGICYRRCR-NH2)
IC50 at 24 h [1]: 26.9 ± 3 µM
IC50 at 24 h [2]: 14.7 ± 1.4 µM
HPLC tR [3]: 6.81 min
IC50 at 24 h [4]: 20.7 ± 1 µM
tissue uptake at 1 h ([5]; brain without perfusion, CD1 female mice, γ counter, read-out: Tissue distribution, Brain (brain uptake)): 0.13 ± 0.03 %ID/g
tissue uptake at 1 h ([5]; liver, CD1 mice, read-out: Tissue distribution, Liver): 22.8 ± 10.1 %ID/g
tissue uptake at 2 min ([5]; mouse, brain without perfusion, 2 min post injection, CD1 female mice, 100 µL of 25 µM 67Ga-peptide, γ counter, read-out: Tissue distribution, Brain (brain uptake)): 0.27 ± 0.04 %ID/g
Translocation (%) HBEC-5i (HBEC-5i cells): 2.6 ± 1.2%
IC50 at 24 h [6]: 26.4 ± 2.9 µM
IC50 at 24 h [7]: 39.4 ± 1.8 µM
